Data reported in patent publication US12617797B2, “Substituted pyrazolo [1,5-a]pyrimidines having multimodal activity against pain” (ESTEVE PHARMACEUTICALS, S.A., priority 2020, dated 2026).

Key:
[1] = target: Human α2δ-1 subunit of Cav2.2 calcium channel (Homo sapiens, UniProt P54289); test: Human α2δ-1 subunit of Cav2.2 calcium channel assay ([3H]-gabapentin binding); settings: binding to the α2δ-1 subunit of voltage-gated calcium channels expressed as Ki; + also covers inhibition between 1% and 50%
Procedure, shortened: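 Displacement of 15 nM [3H]-gabapentin from human α2δ-1-enriched membranes (Hepes-KOH 10 mM, pH 7.4; 27 °C, 60 min) read by filter binding and radioactivity counting. Values are single-point % inhibition (1 or 10 μM) or five-point Ki; 10 μM pregabalin sets NSB.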

Human σ1 receptor = target: T1, Human σ1 receptor (Homo sapiens, UniProt Q99720); test: Human σ1 receptor radioligand assay ([3H](+)-pentazocine binding, transfected HEK-293 membranes); settings: binding to σ1 receptor expressed as Ki; + also covers inhibition between 1% and 50%; read-out: σ-1 binding
T1 construct: expressed in transfected cells; host or cells: HEK-293
Procedure, shortened: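 Ki was derived from five test concentrations, or % inhibition was measured at a single 1 or 10 μM dose, against 5 nM [3H](+)-pentazocine. Incubation was 120 min at 37° C in 50 mM Tris-HCl pH 8 with 7 μg HEK-293 membranes, and 10 μM haloperidol set non-specific binding. Bound radioactivity was counted after filtration.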

T1 sequence (Q99720 whole entry): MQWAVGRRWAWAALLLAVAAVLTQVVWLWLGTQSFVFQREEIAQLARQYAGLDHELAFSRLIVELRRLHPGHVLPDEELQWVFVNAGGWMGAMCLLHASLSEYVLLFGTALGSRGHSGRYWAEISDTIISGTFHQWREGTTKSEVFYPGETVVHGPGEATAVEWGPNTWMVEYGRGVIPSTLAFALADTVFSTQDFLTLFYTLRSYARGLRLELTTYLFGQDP
Chain of Human α2δ-1 subunit of Cav2.2 calcium channel (P54289 25-1103): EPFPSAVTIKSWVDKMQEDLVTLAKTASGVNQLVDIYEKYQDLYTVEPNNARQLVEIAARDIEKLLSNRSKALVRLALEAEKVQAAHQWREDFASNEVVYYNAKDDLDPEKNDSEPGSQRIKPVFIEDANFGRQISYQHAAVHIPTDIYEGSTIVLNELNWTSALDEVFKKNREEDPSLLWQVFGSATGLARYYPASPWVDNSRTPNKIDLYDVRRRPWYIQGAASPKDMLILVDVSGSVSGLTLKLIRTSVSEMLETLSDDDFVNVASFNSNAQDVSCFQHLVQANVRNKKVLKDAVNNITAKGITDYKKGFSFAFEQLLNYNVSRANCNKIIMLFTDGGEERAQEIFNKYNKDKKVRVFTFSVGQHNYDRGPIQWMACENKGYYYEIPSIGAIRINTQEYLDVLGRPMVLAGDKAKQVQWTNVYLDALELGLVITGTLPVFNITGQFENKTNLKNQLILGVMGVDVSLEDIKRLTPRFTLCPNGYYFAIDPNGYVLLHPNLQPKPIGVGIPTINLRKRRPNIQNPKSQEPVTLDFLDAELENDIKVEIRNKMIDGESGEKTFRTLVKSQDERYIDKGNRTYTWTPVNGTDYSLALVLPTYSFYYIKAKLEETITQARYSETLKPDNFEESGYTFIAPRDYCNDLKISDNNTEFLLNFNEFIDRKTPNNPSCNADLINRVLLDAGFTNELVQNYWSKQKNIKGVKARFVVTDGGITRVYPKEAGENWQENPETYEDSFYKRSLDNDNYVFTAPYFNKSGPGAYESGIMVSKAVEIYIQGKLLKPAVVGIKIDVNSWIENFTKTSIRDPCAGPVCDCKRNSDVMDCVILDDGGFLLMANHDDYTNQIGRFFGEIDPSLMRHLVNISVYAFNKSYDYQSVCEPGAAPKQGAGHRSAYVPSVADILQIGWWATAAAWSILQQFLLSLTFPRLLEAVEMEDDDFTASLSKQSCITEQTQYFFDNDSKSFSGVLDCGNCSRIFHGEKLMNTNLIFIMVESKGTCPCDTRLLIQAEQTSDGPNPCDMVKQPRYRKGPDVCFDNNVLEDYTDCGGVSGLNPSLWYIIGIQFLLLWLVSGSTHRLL

Structure (SMILES) | Ki [1] [nM] | Ki (Human σ1 receptor) [nM]
Clc1ccc(CN2CCCC(c3ccnc4c(CNCC5CCOCC5)c(C5CC5)nn34)C2)cc1 (stereo not shown) [Example 188, 1-(7-(1-(4-Chlorobenzyl)piperidin-3-yl)-2-cyclopropylpyrazolo[1,5-a]pyrimidin-3-yl)-N-((tetrahydro-2H-pyran-4-yl)methyl)methanamine] | < 500 | < 500
COc1nn2c(C3CCCN(Cc4ccc(Cl)cc4)C3)ccnc2c1CNCC1CCOCC1 (stereo not shown) [Example 189, 1-(7-(1-(4-Chlorobenzyl)piperidin-3-yl)-2-methoxypyrazolo[1,5-a]pyrimidin-3-yl)-N-((tetrahydro-2H-pyran-4-yl)methyl)methanamine] | < 500 | < 500
Clc1ccc(CN2CCCC(c3ccnc4c(CNCC5CCOCC5)c(Cl)nn34)C2)cc1 (stereo not shown) [Example 190, 1-(2-Chloro-7-(1-(4-chlorobenzyl)piperidin-3-yl)pyrazolo[1,5-a]pyrimidin-3-yl)-N-((tetrahydro-2H-pyran-4-yl)methyl)methanamine] | < 500 | < 500
CC(C)CCN1CCCC(c2ccnc3c(CNCC4CCOCC4)c(Cl)nn23)C1 (stereo not shown) [Example 191, 1-(2-Chloro-7-(1-isopentylpiperidin-3-yl)pyrazolo[1,5-a]pyrimidin-3-yl)-N-((tetrahydro-2H-pyran-4-yl)methyl)methanamine] | > 5000 | < 500
CC(=O)N1CCC(CNCc2c(Cl)nn3c(C4CCCN(CCC(C)C)C4)ccnc23)CC1 (stereo not shown) [Example 192, 1-(4-((((2-chloro-7-(1-isopentylpiperidin-3-yl)pyrazolo[1,5-a]pyrimidin-3-yl)methyl)amino)methyl)piperidin-1-yl)ethan-1-one] | > 5000 | < 500
CC(=O)N1CCC(CNCc2c(C)nn3c([C@H]4CCCN(Cc5ccc(Cl)cc5)C4)ccnc23)CC1 [Example 193, (S)-1-(4-((((7-(1-(4-Chlorobenzyl)piperidin-3-yl)-2-methylpyrazolo[1,5-a]pyrimidin-3-yl)methyl)amino)methyl)piperidin-1-yl)ethan-1-one] | < 500 | < 500
CC(=O)N1CCC(CNCc2c(C)nn3c([C@@H]4CCCN(Cc5ccc(Cl)cc5)C4)ccnc23)CC1 [Example 194, (R)-1-(4-((((7-(1-(4-chlorobenzyl)piperidin-3-yl)-2-methylpyrazolo[1,5-a]pyrimidin-3-yl)methyl)amino)methyl)piperidin-1-yl)ethan-1-one] | 500 to 5000 | < 500
Cc1nn2c([C@@H]3CCCN(Cc4ccc(Cl)cc4)C3)ccnc2c1CN[C@H](C)c1ccccc1 [Example 195, (R)—N-((7-((R)-1-(4-Chlorobenzyl)piperidin-3-yl)-2-methylpyrazolo[1,5-a]pyrimidin-3-yl)methyl)-1-phenylethan-1-amine] | 500 to 5000 | < 500
Cc1nn2c([C@H]3CCCN(Cc4ccc(Cl)cc4)C3)ccnc2c1CN[C@H](C)c1ccccc1 [Example 196, (R)—N-((7-((S)-1-(4-chlorobenzyl)piperidin-3-yl)-2-methylpyrazolo[1,5-a]pyrimidin-3-yl)methyl)-1-phenylethan-1-amine] | > 5000 | < 500
Cc1nn2c([C@@H]3CCCN(Cc4ccc(Cl)cc4)C3)ccnc2c1CN[C@@H](C)c1ccccc1 [Example 197, (S)—N-((7-((R)-1-(4-chlorobenzyl)piperidin-3-yl)-2-methylpyrazolo[1,5-a]pyrimidin-3-yl)methyl)-1-phenylethan-1-amine] | 500 to 5000 | < 500
Cc1nn2c([C@H]3CCCN(Cc4ccc(Cl)cc4)C3)ccnc2c1CN[C@@H](C)c1ccccc1 [Example 198, (S)—N-((7-((S)-1-(4-chlorobenzyl)piperidin-3-yl)-2-methylpyrazolo[1,5-a]pyrimidin-3-yl)methyl)-1-phenylethan-1-amine] | < 500 | < 500
Cc1nn2c([C@H]3CCCN(Cc4ccc(Cl)cc4)C3)ccnc2c1CNCC1CCOCC1 [Example 199, (S)-1-(7-(1-(4-Chlorobenzyl)piperidin-3-yl)-2-methylpyrazolo[1,5-a]pyrimidin-3-yl)-N-((tetrahydro-2H-pyran-4-yl)methyl)methanamine] | < 500 | < 500
Cc1nn2c([C@@H]3CCCN(Cc4ccc(Cl)cc4)C3)ccnc2c1CNCC1CCOCC1 [Example 200, (R)-1-(7-(1-(4-chlorobenzyl)piperidin-3-yl)-2-methylpyrazolo[1,5-a]pyrimidin-3-yl)-N-((tetrahydro-2H-pyran-4-yl)methyl)methanamine] | > 5000 | < 500
Cc1nn2c([C@@H]3CCCN(Cc4ccc(Cl)cc4)C3)ccnc2c1CNC[C@H]1CCOC1 [Example 202, 1-(7-((R)-1-(4-chlorobenzyl)piperidin-3-yl)-2-methylpyrazolo[1,5-a]pyrimidin-3-yl)-N—(((R)-tetrahydrofuran-3-yl)methyl)methanamine] | < 500 | < 500
Cc1nn2c([C@H]3CCCN(Cc4ccc(Cl)cc4)C3)ccnc2c1CNC[C@@H]1CCOC1 [Example 203, 1-(7-((S)-1-(4-chlorobenzyl)piperidin-3-yl)-2-methylpyrazolo[1,5-a]pyrimidin-3-yl)-N—(((S)-tetrahydrofuran-3-yl)methyl)methanamine] | 500 to 5000 | < 500
Cc1nn2c([C@H]3CCCN(Cc4ccccc4)C3)ccnc2c1CNCC1CCOCC1 [Example 204, (S)-1-(7-(1-Benzylpiperidin-3-yl)-2-methylpyrazolo[1,5-a]pyrimidin-3-yl)-N-((tetrahydro-2H-pyran-4-yl)methyl)methanamine] | 500 to 5000 | < 500
Cc1nn2c([C@@H]3CCCN(Cc4ccccc4)C3)ccnc2c1CNCC1CCOCC1 [Example 205, (R)-1-(7-(1-benzylpiperidin-3-yl)-2-methylpyrazolo[1,5-a]pyrimidin-3-yl)-N-((tetrahydro-2H-pyran-4-yl)methyl)methanamine] | > 5000 | < 500
Cc1nn2c([C@H]3CCCN(Cc4ccc(F)cc4)C3)ccnc2c1CNCC1CCOCC1 [Example 206, (S)-1-(7-(1-(4-Fluorobenzyl)piperidin-3-yl)-2-methylpyrazolo[1,5-a]pyrimidin-3-yl)-N-((tetrahydro-2H-pyran-4-yl)methyl)methanamine] | < 500 | < 500
Cc1nn2c([C@@H]3CCCN(Cc4ccc(F)cc4)C3)ccnc2c1CNCC1CCOCC1 [Example 207, (R)-1-(7-(1-(4-fluorobenzyl)piperidin-3-yl)-2-methylpyrazolo[1,5-a]pyrimidin-3-yl)-N-((tetrahydro-2H-pyran-4-yl)methyl)methanamine] | > 5000 | < 500
Cc1nn2c([C@H]3CCCN(Cc4cccc(C#N)c4)C3)ccnc2c1CNCC1CCOCC1 [Example 208, (S)-3-((3-(2-Methyl-3-((((tetrahydro-2H-pyran-4-yl)methyl)amino)methyl)pyrazolo[1,5-a]pyrimidin-7-yl)piperidin-1-yl)methyl)benzonitrile] | > 5000 | < 500
Cc1nn2c([C@@H]3CCCN(Cc4cccc(C#N)c4)C3)ccnc2c1CNCC1CCOCC1 [Example 209, (R)-3-((3-(2-methyl-3-((((tetrahydro-2H-pyran-4-yl)methyl)amino)methyl)pyrazolo[1,5-a]pyrimidin-7-yl)piperidin-1-yl)methyl)benzonitrile] | > 5000 | < 500
Cc1nn2c([C@@H]3CCCN(Cc4ccc(Cl)cc4)C3)ccnc2c1CN(C)C [Example 211, (R)-1-(7-(1-(4-chlorobenzyl)piperidin-3-yl)-2-methylpyrazolo[1,5-a]pyrimidin-3-yl)-N,N-dimethylmethanamine] | > 5000 | < 500
CNCc1c(C)nn2c([C@@H]3CCCN(Cc4ccc(Cl)cc4)C3)ccnc12 [Example 212, (R)-1-(7-(1-(4-Chlorobenzyl)piperidin-3-yl)-2-methylpyrazolo[1,5-a]pyrimidin-3-yl)-N-methylmethanamine] | > 5000 | < 500
CNCc1c(C)nn2c([C@H]3CCCN(Cc4ccc(Cl)cc4)C3)ccnc12 [Example 213, (S)-1-(7-(1-(4-chlorobenzyl)piperidin-3-yl)-2-methylpyrazolo[1,5-a]pyrimidin-3-yl)-N-methylmethanamine] | 500 to 5000 | < 500
Clc1nn2c([C@H]3CCCN(Cc4ccccc4)C3)ccnc2c1CNCC1CCOCC1 [Example 214] | 500 to 5000 | < 500
Clc1nn2c([C@@H]3CCCN(Cc4ccccc4)C3)ccnc2c1CNCC1CCOCC1 [Example 215] | > 5000 | < 500
CC(=O)N1CCC(CNCc2c(Cl)nn3c([C@H]4CCCN(Cc5ccccc5)C4)ccnc23)CC1 [Example 216, (S)-1-(4-((((7-(1-Benzylpiperidin-3-yl)-2-chloropyrazolo[1,5-a]pyrimidin-3-yl)methyl)amino)methyl)piperidin-1-yl)ethan-1-one] | < 500 | < 500
Cc1nn2c(C3CCCN(Cc4ccc(Cl)cc4)C3)ccnc2c1CNCC1CCN(C(N)=O)CC1 (stereo not shown) [Example 218, 4-((((7-(1-(4-Chlorobenzyl)piperidin-3-yl)-2-methylpyrazolo[1,5-a]pyrimidin-3-yl)methyl)amino)methyl)piperidine-1-carboxamide] | 500 to 5000 | 500 to 1000
Cc1nn2c(C3CCCN(Cc4ccc(Cl)cc4)C3)ccnc2c1CN (stereo not shown) [Example 219, (7-(1-(4-Chlorobenzyl)piperidin-3-yl)-2-methylpyrazolo[1,5-a]pyrimidin-3-yl)methanamine] | 500 to 5000 | 500 to 1000
